Legend:
STZ-induced T2DM rats [1] = test: Serum insulin and HOMA-IR in T2DM rats; assay type: in vivo, rat
Protocol: 150 male SD rats, housed in cages in a clean constant temperature (23±2° C.) and humidity (55±10%) animal house, were manually adjusted on a daily 12 h/12 h diurnal light cycle with free access to water. After 3 days of adaptive feeding, 150 rats were randomly divided into normal and model groups. The normal (Con, n=15) group of rats remained on raw chow and the model group (n=135) of rats were given high fat high sugar chow. All rats were fed twice daily and the amount of feed was adjusted as needed to ensure adequate feed. After 8 weeks of group feeding, the model group rats were given an intraperitoneal injection of 25 mg/kg STZ solution with a 12 h fast prior to injection. […] At the same time, the Con group was daily administrated with a 0.5% CMC-Na solution by gavage, the body weight and postprandial blood sugar (PBG) of each group of rats were monitored weekly. Relevant indicators of lipid metabolism were measured after the end of the study.
In T2DM rat serum insulin assay, fasting serum insulin levels in rats were measured by a commercial insulin ELISA kit. The extent of body insulin resistance was assessed using the Insulin Resistance Index, which was calculated using the Homeostasis model assessment (HOMA-IR) according to literature reports, i.e., HOMA-IR=(fasting glucose×fasting insulin)/22.5.

GPR40 = test: Insulin secretion in MIN6 cells with GPR40 inhibitor GW1100; assay type: cell-based, mouse; conditions: 10 μmol/L GW1100 + 10 μmol/L ADD-16, 24 h
Protocol: MIN6 cells were seeded in 24-well plates and cultured as described in step 2.1 to a cell confluency of more than 80% and administrated in the following groups, with 12 replicates per group: (1) normal control group (Con): cultured with blank 1640 medium; (2) GW9508 group: 1 μmol/L GW9508 intervention for 24 h; (3) GW1100 group: 10 μmol/L GW1100 intervention for 24 h; (4) ADD-16 group (ADD): 10 μmol/L ADD-16 intervention for 24 h; (5) GW1100+GW9508 group: 10 μmol/L GW1100+1 μmol/L GW9508 intervention for 24 h; (6) GW1100+ADD-16 group: 10 μmol/L GW1100+10 μmol/LADD-16 intervention for 24 h. After the group administration, the medium was aspirated and washed 2 times with a KRB buffer without sugar, followed by the addition of the KRB buffer without sugar. After incubation at 37° C. for 30 min, the buffer was aspirated and each group was divided into two, i.e., 6 replicates for each group, and KRB buffers containing 2.8 mmol/L and 16.7 mmol/L glucose was added respectively. After incubation at 37° C. for 1 h, all the medium in the wells was aspirated and centrifuged at 2000 rmp/min for 20 min, and the supernatant was collected and stored at −20° C. The insulin content was measured for each group.

STZ-induced T2DM rats [2] = test: Insulin tolerance test (ITT) in T2DM rats; assay type: in vivo, rat
Protocol: 150 male SD rats, housed in cages in a clean constant temperature (23±2° C.) and humidity (55±10%) animal house, were manually adjusted on a daily 12 h/12 h diurnal light cycle with free access to water. After 3 days of adaptive feeding, 150 rats were randomly divided into normal and model groups. The normal (Con, n=15) group of rats remained on raw chow and the model group (n=135) of rats were given high fat high sugar chow. All rats were fed twice daily and the amount of feed was adjusted as needed to ensure adequate feed. After 8 weeks of group feeding, the model group rats were given an intraperitoneal injection of 25 mg/kg STZ solution with a 12 h fast prior to injection. After injection, feeding was continued as in the original method, blood was taken from the tail vein at 72 h for blood glucose measurement, and rats with fasting blood glucose levels ≥11.1 mmol/L on different days were screened for successful artificial induction of T2DM and administered in groups for the next experiment. 135 rats with successful modeling were randomly divided into 9 groups: […] (2) 0.01 mg/kg ADD-16 administration group (ADD I, n=15): daily administration of 0.01 mg/kg ADD-16 solution by gavage; (3) 0.1 mg/kg ADD-16 administration group (ADD II, n=15): daily administration of a 0.1 mg/kg ADD-16 solution by gavage; (4) 1 mg/kg ADD-16 administration group (ADD III, n=15): daily administration of a 1 mg/kg ADD-16 solution by gavage; (5) 3 mg/kg ADD-16 administration group (ADD IV, n=15): daily administration of a 3 mg/kg ADD-16 solution by gavage; (6) 10 mg/kg ADD-16 administration group (ADD V, n=15): daily administration of a 10 mg/kg ADD-16 solution by gavage; (7) 50 mg/kg ADD-16 administration group (ADD VI, n=15): daily administration of a 50 mg/kg ADD-16 solution by gavage; […] (9) Sitagliptin control group (ST, n=15): daily administration of a 6 mg/kg sitagliptin solution by gavage. […] Relevant indicators of lipid metabolism were measured after the end of the study. […] After the 120 min blood glucose value determination was completed, the diet was resumed. In the test, the condition of the rats was observed, and when abnormalities occurred, the experiment was stopped in time and a glucose solution was given by gavage to prevent death due to hypoglycemia.

`CC1(C)CC(=O)C2=C(C1)NC1=C(C(=O)CC(C)(C)C1)C2c1ccc(OCc2ccc(C(=O)O)cc2)c(Br)c1` [ADD-16] was tested, and the “HOMA-IR (in words)” value (STZ-induced T2DM rats [1]) was “significantly reduced HOMA-IR values”, the “serum insulin level (in words)” value (STZ-induced T2DM rats [1]; fasting serum) was “reduce compensatorily elevated insulin levels” and the “insulin secretion in GW1100-treated MIN6 cells (in words)” value (GPR40) was “increase insulin secretion in MIN6 cells treated with the GPR40 inhibitor GW1100”. The “decrease of ITT AUC compared to the TD group” value (shortened to “decrease of ITT AUC”) (STZ-induced T2DM rats [2]; ADD IV group, 3 mg/kg daily by gavage) was 46.5%, the “decrease of ITT AUC” value (STZ-induced T2DM rats [2]; ADD V group, 10 mg/kg daily by gavage) was 43.7% and the “decrease of ITT AUC” value (STZ-induced T2DM rats [2]; ADD VI group, 50 mg/kg daily by gavage) was 45.2%.

From patent US20230124720A1, “APPLICATION OF ACRIDINEDIONE COMPOUND IN PREPARATION OF ANTI-DIABETIC DRUGS” (THE FOURTH MILITARY MEDICAL UNIVERSITY, priority 2020, published 2023)
